From patent publication US20260285870A1, “TRIAZOLOPYRIDAZINE DERIVATIVE, PREPARATION METHOD THEREFOR, PHARMACEUTICAL COMPOSITION THEREOF, AND USE THEREOF” (SHANGHAI SIMR BIOTECHNOLOGY CO., LTD., priority 2019, published 2026)

test system: not listed separately; assay: Water solubility observed during work-up; type: physicochemical; conditions: observation at extraction, pH=7
Experimental: Methyl 6-[7-methoxy-3-(5-methyl-isoxazol-3-yl)-[1,2,4]triazolo[4,3-b]pyridazin-6-yloxymethyl]-nicotinate (300 mg, 0.75 mmol), 1 M lithium hydroxide (1.5 mL, 1.5 mmol) were sequentially added to 10 mL of ethanol, and the mixture was stirred at room temperature for 1 hour. The mixture was added with 0.5 M hydrochloric acid to neutralize to pH=7, diluted with water, extracted with ethyl acetate. […] LC-MS: m/z [M+H]^+=383.

Q: Which water solubility does the source give for `COc1cc2nnc(-c3cc(C)on3)n2nc1OCc1ccc(C(=O)O)cn1` [Embodiment 63] here?
A: good water solubility

test system: not listed separately; assay: Pharmacokinetic experiment on rats: brain entry ratio (brain tissue/plasma concentration ratio); type: in vivo; conditions: male SD rats, po, 10 mg/kg, 0.5 hours
Experimental: The drug concentration ratio of plasma and brain tissue in the pharmacokinetic experiment on rats was used to evaluate the entry of compounds into brain. All rats fasted overnight before administration; the test compounds were dissolved and administered orally (po) to male SD rats, with 3 rats in each group. After administration of the test compounds, blood was collected by jugular vein puncture at 0.5 hours with about 0.25 mL per sample. The whole brain was taken at the same time. The plasma and brain tissue drug concentration were determined by LC-MS/MS method, and the pharmacokinetic parameters were calculated by Phoenix WinNonlin7.0. The dosage was 10 mg/kg, and the vehicle was 5% CMC-Na aqueous solution.

Q: For `COc1cc2nnc(-c3cc(C)on3)n2nc1OCc1ccc2c(n1)CCN(C(CO)CO)C2` [Embodiment 185], which Brain entry ratio is on record?
A: 0%

test system: not listed separately; assay: Pharmacokinetic experiment on rats: maximum plasma drug concentration (Cmax); type: in vivo; conditions: rat, male SD rats, po, 10 mg/kg, 5% CMC-Na aqueous solution
Experimental: In the pharmacokinetic experiment on rats, the maximum plasma drug concentration (Cmax) was used to evaluate the absorption of the compounds in rats. All rats fasted overnight before administration; the test compounds were dissolved and administered orally (po) to male SD rats, with 3 rats in each group. After administration of the test compounds, blood was collected by jugular vein puncture at […] with about 0.25 mL per sample. The plasma drug concentration was determined by LC-MS/MS method, and the pharmacokinetic parameters were calculated by Phoenix WinNonlin7.0. The dosage was 10 mg/kg, and the vehicle was 5% CMC-Na aqueous solution.

Q: With `COc1cc2nnc(-c3cc(C)on3)n2nc1OCc1ccccn1` [Embodiment 33] as the compound, how does the Cmax read?
A: 1.78 µg/mL

Q: For `Cc1cc(-c2nnc3cc(C(C)(C)C)c(OCc4ccccn4)nn23)no1` [drawing 930], which Cmax is on record?
A: 0.216 µg/mL

Q: Which Cmax does the source give for `Cc1cc(-c2nnc3c4ccccc4c(OCc4ccccn4)nn23)no1` [α51A-II, reference compound] here?
A: 0.0257 µg/mL

test system: α5-GABAA receptor; assay: not given; conditions: animal models; cited from earlier work

Q: With `Cc1cc(-c2nncc3c(C(C)(C)C)c(OCc4ncnn4C)nn23)no1` [MRK-016] as the compound, how does the “therapeutic effects on cognition related diseases” value read?
A: good therapeutic effects

Q: With `Cc1cc(-c2nnc3c4ccccc4c(OCc4cn(C)nn4)nn23)no1` [α5IA] as the compound, how does the “therapeutic effects on cognition related diseases” value read?
A: good therapeutic effects

test system: α5-GABAA receptor; assay: not given; design: suppression of the current induced by GABA: dose or concentration left out as unconfirmed; conditions: GABA concentration increased further; cited from earlier work

Q: With `CCOC(=O)c1ncn2c1[C@@H]1CCCN1C(=O)c1cc(OC)ccc1-2` [L-655,708] as the compound, how does the “inhibitory effect on the current induced by GABA” value read?
A: no inhibitory effect

same assay, conditions: highest concentration of L-655,708; cited from earlier work

Q: Which “suppression of the current induced by GABA” value does the source give for `CCOC(=O)c1ncn2c1[C@@H]1CCCN1C(=O)c1cc(OC)ccc1-2` [L-655,708] here?
A: 15%

same assay, conditions: low concentrations of GABA (5, 50 and 500 nM); cited from earlier work

Q: With `CCOC(=O)c1ncn2c1[C@@H]1CCCN1C(=O)c1cc(OC)ccc1-2` [L-655,708] as the compound, how does the “inhibition of the current induced by GABA” value read?
A: dose-dependently inhibited

test system: not listed separately; assay: Rat liver microsome stability (RLM) experiment; type: in vitro ADME; conditions: pH 7.4; rat liver microsomes 0.5 mg protein/mL, NADPH, 37° C., 0-45 min
Experimental: Rat liver microsomes (Xenotech, item No. R1000, lot No. 1310030), 100 mM potassium phosphate buffer solution (pH 7.4), 10 mM magnesium chloride.
Compound preparation: 5 μL of compound DMSO mother liquor (10 mM) was added to 495 μL of methanol to obtain an intermediate solution with a compound concentration of 100 μM. Then 50 μL of the intermediate solution was taken and dissolved in 450 μL of potassium phosphate buffer solution to obtain a test solution with a final concentration of 10 μM.
NADPH regeneration system (concentration of isocitrate dehydrogenase 1 unit/mL).
Liver microsomes (final concentration 0.5 mg protein/mL).
Reaction termination solution: cold acetonitrile containing 100 ng/mL Tolbutamide and 100 ng/mL Labetalol as an internal standard.
• (1) Preparation of Buffer Solution: • Buffer solution A: 1.0 L of 0.1 M potassium phosphate buffer solution containing 1.0 mM EDTA • Buffer solution B: 1.0 L of 0.1 M dipotassium phosphate buffer solution containing 1.0 mM EDTA • Buffer solution C: 0.1 M potassium phosphate buffer, 1.0 mM EDTA, pH 7.4, titrated with 700 mL of buffer solution B and buffer solution A, monitored by pH meter. • (2) Preparation of Reference Substance (Ketanserin) and Concentration of Administration Solution of the Test Substance
5000 administration solution: […] 10 mM DMSO reference substance stock solution and test substance stock solution were added to 190 μL of ACN, respectively. 1.5 μM administration solution (containing 0.75 mg/mL liver microsomes): […] administration solution and 18.75 μL of 20 mg/mL liver microsomes were added to 479.75 μL of buffer C on a wet ice. • (3) NADPH was added to buffer solution C to obtain a NADPH stock solution (6 mM). • (4) 30 μL of 1.5 μM administration solution (containing 0.75 mg/mL of liver microsomes) was taken on the wet ice and added to the wells of the test plate at different time points (0-, 5-, 15-, 30-, 45-min), respectively. • (5) Firstly, 135 μL of ACN containing IS was added to the wells of a 0 min test plate, and then 15 µL of the NADPH stock solution (6 mM) was added. • (6) The test plate at other time points and the NADPH stock solution were pre-heated in a 37° C. water bath for 5 minutes. • (7) 15 μL of the NADPH stock solution (6 mM) was taken and added to a pre-incubated test plate, and the reaction was started and timed. • (8) At 5 min, 15 min, 30 min and 45 min, 135 µL of CAN containing IS was added to the corresponding test plate respectively, and the test was completed. • (9) Test plates were shaken with a shaker (IKA, MTS 2/4) for 10 min (600 rpm/min) and then centrifuged for 15 min (Thermo Multifuge×3R, 5594 g). • (10) 50 μL of supernatant from each well was added to a 96-well sample plate containing 50 μL of ultrapure water (Millipore, ZMQS50F01), and the samples were analyzed by LC/MS.

Q: With `CCNC(=O)c1ccc(COc2nn3c(-c4cc(C)on4)nnc3cc2C(C)(C)C)nc1` [Compound 42 in CN107344936A, reference compound] as the compound, how does the microsomal CLint read?
A: 143 µL/min/mg

Q: With `COc1cc2nnc(-c3cc(C)on3)n2nc1OCc1ccccn1` [Embodiment 33] as the compound, how does the microsomal CLint read?
A: 0.3 µL/min/mg

Q: Which microsomal CLint does the source give for `CCNC(=O)c1ccc(COc2nn3c(-c4cc(C)on4)nnc3cc2OC)nc1` [Embodiment 35] here?
A: 11.4 µL/min/mg

Q: With `COc1cc2nnc(-c3cc(C)on3)n2nc1OCc1ccc(C2(F)CN(C3COC3)C2)cn1` [Embodiment 128] as the compound, how does the microsomal CLint read?
A: 6 µL/min/mg

Q: Which microsomal CLint does the source give for `COCCCOc1ccc(COc2nn3c(-c4noc(C)n4)nnc3cc2OC)nn1` [Embodiment 129] here?
A: 14 µL/min/mg

Q: Which microsomal CLint does the source give for `COCc1ccc(COc2nn3c(-c4cc(C)on4)nnc3cc2OC)nn1` [Embodiment 151] here?
A: 1 µL/min/mg

Q: With `COc1cc2nnc(-c3cc(C)on3)n2nc1OCc1ccc(OC2CCOCC2)nn1` [Embodiment 152] as the compound, how does the microsomal CLint read?
A: 23 µL/min/mg

Q: Which microsomal CLint does the source give for `COc1cc2nnc(-c3cc(C)on3)n2nc1OCc1ccc(OC2COC2)nn1` [Embodiment 153] here?
A: 5 µL/min/mg

Q: Which microsomal CLint does the source give for `COc1cc2nnc(-c3cc(C)on3)n2nc1OCc1ccc(OC2CCOC2)nn1` (stereo not shown) [Embodiment 154] here?
A: 1 µL/min/mg

Q: For `COc1cc2nnc(-c3cc(C)on3)n2nc1OCc1ccc2c(n1)CN(C)C2` [Embodiment 160], which microsomal CLint is on record?
A: 6 µL/min/mg

Q: Which microsomal CLint does the source give for `COc1cc2nnc(-c3cc(C)on3)n2nc1OCc1ccc2c(n1)CCN(C1CCOC1)C2` (stereo not shown) [Embodiment 183] here?
A: 5 µL/min/mg

Q: For `COc1cc2nnc(-c3cc(C)on3)n2nc1OCc1ccc2c(n1)CCN(C(CO)CO)C2` [Embodiment 185], which microsomal CLint is on record?
A: 9 µL/min/mg

Q: For `COc1cc2nnc(-c3cc(C)on3)n2nc1OCc1ccc2c(n1)CCN(C1CCOCC1)C2` [Embodiment 186], which microsomal CLint is on record?
A: 22 µL/min/mg

Q: With `COc1cc2nnc(-c3cc(C)on3)n2nc1OCc1ccc2c(n1)CCN(Cc1cc(C)on1)C2` [Embodiment 187] as the compound, how does the microsomal CLint read?
A: 15 µL/min/mg

Q: Which microsomal CLint does the source give for `COc1cc2nnc(-c3cc(C)on3)n2nc1OCc1ccc2nc(C#N)cn2n1` [Embodiment 211] here?
A: 5 µL/min/mg

Q: For `COCc1cn2nc(COc3nn4c(-c5cc(C)on5)nnc4cc3OC)ccc2n1` [Embodiment 213], which microsomal CLint is on record?
A: 10 µL/min/mg

Q: For `COc1cc2nnc(-c3cc(C)on3)n2nc1OCc1ccc2c(n1)CN(C1CCOCC1)C2` [Embodiment 253], which microsomal CLint is on record?
A: 10 µL/min/mg

Q: Which microsomal CLint does the source give for `Cc1cc(-c2nnc3cc(C(C)(C)C)c(OCc4ccccn4)nn23)no1` [drawing 926, reference compound] here?
A: 33.6 µL/min/mg

Q: Which microsomal CLint does the source give for `Cc1cc(-c2nnc3c4ccccc4c(OCc4ccccn4)nn23)no1` [α51A-II, reference compound] here?
A: 28.2 µL/min/mg

same assay, conditions: rat liver microsomes 0.5 mg protein/mL, NADPH, 37° C., 0-45 min

Q: For `COc1cc2nnc(-c3cc(C)on3)n2nc1OCc1ccc2c(n1)CCN(C1COC1)C2` [Embodiment 84], which RLM is on record?
A: 0 µL/min/mg

Q: With `COCCOCc1ccc(COc2nn3c(-c4cc(C)on4)nnc3cc2OC)nn1` [Embodiment 166] as the compound, how does the RLM read?
A: 0 µL/min/mg
